Key:
A549 cells = assay: Combination with bortezomib, A549 cell confluency (Incucyte); format: cell-based; conditions: 1 nM alone, two independent experiments
Procedure: A549 cells were seeded in log phase (e.g., at 40-60% confluency) in a well plate. Drug treatments were: no drug treatment, DMSO, bortezomib at 50 nM, 10 nM, 5 nM, 2 nM or 1 nM, Example No. 13 at 10 nM, and bortezomib 50 nM, 10 nM, 5 nM, 2 nM or 1 nM combined with Example No. 13 at 10 nM. The DMSO concentrations were kept constant (including DMSO control) to control for any confounding DMSO toxicity.
Drug addition protocol: On day 1, cells were seeded at 60,000 cells/well, and incubated for 24 hours to allow adherence. On day 2, media was aspirated and replaced with 500 μl of the drug media preparations described below in correlating wells. The plates were placed in Incucyte for 7-14 days, and cell confluency was measured every 2 hours. […]

[1] = tested on: phospho-STAT5 in L540 cells; assay: In vitro pSTAT5 assay (ELISA) in L540 cells; format: cell-based; conditions: Homo sapiens, L-540, 24 hours, normalized to cell viability, read-out: P-STAT5 Assay IC50
Procedure: The L540 cell line harbors a truncating mutation in the C-terminal regulatory region of the protein. As a consequence, TNK1 in L540 cells is constitutively active in phosphorylating key proteins, including STAT5. In TNK1 wild-type conditions (e.g., K562 CML cells), STAT5 phosphorylation is achieved in a TNK1-independent fashion. As such, reductions in phospho-STAT5 signal specific to the L540 cells are a good readout of TNK1 inhibitor function.
Methods: The in vitro pSTAT5 assay was performed with STAT5 AB (pY964/699) SimpleStep ELISA Kit (Abcam No. ab176656) according to the manufacturer's protocol. Briefly, L540 cells were grown in RPMI1640 media under standard culture conditions (10% FBS with penicillin/streptomycin). To assess test compound effects, cells were plated in 96 well plates (250,000 cells/mL) and allowed to grow overnight. Cells were subsequently treated with varying concentrations of test compound for 24 hours, before being harvested and interrogated with the STAT5 AB (pY964/699) SimpleStep ELISA Kit according to the manufacturer's protocol. Phospho-STAT5 signal was normalized to cell viability, as assessed by the CellTiter-Glo assay (Promega, Cat. No. G7570) on treated cells. TNK1 inhibitor IC50s were determined using Graphpad Prism software on normalized phospho-STAT5 measurements.

TNK1 [2] = target: T1, TNK1 (Homo sapiens, UniProt Q13470); assay: TNK1 NanoBRET target engagement assay (HEK293); format: cell-based; parameters: host or cells: HEK293; conditions: HEK293 cells, 2 hours; read-out: NanoBRET TE Assay (HEK293) IC50
T1 sequence (Q13470 1-666): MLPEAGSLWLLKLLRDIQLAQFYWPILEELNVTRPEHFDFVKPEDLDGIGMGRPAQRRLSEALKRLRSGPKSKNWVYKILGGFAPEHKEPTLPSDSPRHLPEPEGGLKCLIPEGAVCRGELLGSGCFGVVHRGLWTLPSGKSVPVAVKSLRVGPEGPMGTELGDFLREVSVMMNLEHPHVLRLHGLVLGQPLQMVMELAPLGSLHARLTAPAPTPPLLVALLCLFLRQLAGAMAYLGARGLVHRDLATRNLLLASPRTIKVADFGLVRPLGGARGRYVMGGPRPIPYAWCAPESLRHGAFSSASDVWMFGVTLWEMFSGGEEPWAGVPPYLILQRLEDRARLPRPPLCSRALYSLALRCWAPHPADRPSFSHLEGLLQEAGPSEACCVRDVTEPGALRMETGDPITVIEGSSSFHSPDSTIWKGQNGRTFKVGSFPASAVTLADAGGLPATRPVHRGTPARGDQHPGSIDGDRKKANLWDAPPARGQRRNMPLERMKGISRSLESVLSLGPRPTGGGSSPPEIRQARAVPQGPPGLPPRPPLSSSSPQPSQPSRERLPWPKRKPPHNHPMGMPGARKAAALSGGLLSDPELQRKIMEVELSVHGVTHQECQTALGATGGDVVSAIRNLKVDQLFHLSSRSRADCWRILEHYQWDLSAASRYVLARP
Source text: The NanoBRET target engagement (TE) assay (Promega, Madison, Wis.) enables the interrogation of the displacement of a tracer compound in the active site of a recombinant kinase by a test compound in the intracellular setting. The assay enables simultaneous testing of permeability, solubility, and kinase inhibition, and tests the specific interaction of test agents with a kinase of interest, here, TNK1. The assay is based on the principle of bioluminescence resonance energy transfer (BRET). In the assay, a plasmid-encoded, luciferase-tagged form of TNK1 is transfected into cells. A tracer compound is tagged with a fluorophore that fluoresces when bound to the TNK1 protein. Readout is luminescence and fluorescence. Test compounds show activity by displacing the tracer, thus disrupting BRET.
Methods: The TNK1 NanoBRET TE assays were performed according to the manufacturer's protocol. Briefly, Nanoluc-TNK1 Fusion Vector (Promega, Madison, Wis., Cat. No. NV2181) was transfected into HEK293 cells in bulk (8×10^6 cells in a T175 flask). Up to 30 hours post-transfection, cells were harvested by trypsinization, resuspended at a concentration of 2×10^5 cells/mL, and seeded in 96-well plates at 85 μL/well. A test compound and the K5 tracer were added to each well, and the cells were incubated for 2 hours. Luminescence ([…]) and fluorescence ([…]) were measured to determine a BRET ratio. IC50 values were determined from the BRET ratios using the Graphpad Prism software (GraphPad Software, San Diego, Calif.).

TNK1 [3] = target: T1, TNK1; assay: RBC HotSpot Kinase Assay; format: biochemical; parameters: purchased Reaction Biology Corp., Malvern, Pa; conditions: ATP 10 μM
Procedure: The RBC HotSpot Kinase assay (Reaction Biology Corp., Malvern, Pa.) was used to evaluate the ability of test compounds to modulate (e.g., inhibit) the enzymatic activity of human TNK1 (UniProt Accession No. Q13470) in the following reaction:
Reagent: Base Reaction buffer; 20 mM Hepes (pH 7.5), 10 mM MgCl2, 1 mM EGTA, 0.02% Brij35, 0.02 mg/ml BSA, 0.1 mM Na3VO4, 2 mM DTT, 1% DMSO. Required cofactors were added individually to each kinase reaction.
Compound handling: Test compounds were dissolved in 100% DMSO to specific concentration. The serial dilution was conducted by Integra Viaflo Assist in DMSO.
1. Prepared substrate (peptide substrate, poly[Glu:Tyr] (4:1), 0.2 mg/ml; ATP 10 μM) in freshly prepared Reaction Buffer;
2. Delivered any required cofactors to the substrate solution;
3. Delivered kinase (TNK1) into the substrate solution and gently mixed;
4. Delivered compounds in 100% DMSO into the kinase reaction mixture by Acoustic technology (Echo550; nanoliter range), incubated for 20 minutes at room temperature;
5. Delivered ^33P-ATP (specific activity 10 μCi/μl) into the reaction mixture to initiate the reaction;
6. Incubated for 2 hours at room temperature;
7. Detected radioactivity by filter-binding method;
8. Kinase activity data were expressed as the percent remaining kinase activity in test samples compared to vehicle (dimethyl sulfoxide) reactions. IC50 values and curve fits were obtained using Prism (GraphPad Software).

Compound	cell growth inhibition, alone (A549 cells)	IC50 [1] [nM]	IC50 (TNK1 [2]) [nM]	IC50 (TNK1 [3]) [nM]
CC(C)C[C@H](NC(=O)[C@H](Cc1ccccc1)NC(=O)c1cnccn1)B(O)O [Bortezomib, bortezomib, reference compound]	no inhibition of cell growth	–	–	–
CN1CCN(c2c(Cl)cc(Nc3ncc(Cl)c(Nc4cccnc4N(C)C)n3)c3ccccc23)CC1 [compound 7, 5-chloro-N^2-(3-chloro-4-(4-methylpiperazin-1-yl)naphthalen-1-yl)-N^4-(2-(dimethylamino)pyridin-3-yl)pyrimidine-2,4-diamine]	–	5 to 50	> 1000	< 5
COc1cc(N2CCN(C)CC2)c(C)cc1Nc1ncc(Cl)c(Nc2cccnc2N2CCCC2)n1 [compound 8, 5-chloro-N^2-(2-methoxy-5-methyl-4-(4-methylpiperazin-1-yl)phenyl)-N^4-(2-(pyrrolidin-1-yl)pyridin-3-yl)pyrimidine-2,4-diamine]	–	5 to 50	150 to 1000	< 5
COc1cc(N2CCN(C)CC2)c(C)cc1Nc1ncc(I)c(Nc2cccnc2N(C)C)n1 [compound 11, N^4-(2-(dimethylamino)pyridin-3-yl)-5-iodo-N^2-(2-methoxy-5-methyl-4-(4-methylpiperazin-1-yl)phenyl)pyrimidine-2,4-diamine]	–	5 to 50	150 to 1000	< 5
